Reference: paper PMC3974779, “Pterostilbene-Isothiocyanate Conjugate Suppresses Growth of Prostate Cancer Cells Irrespective of Androgen Receptor Status” (PLoS ONE, 2014)
Residues, ends and D or L forms follow the SMILES beside them. *: point of attachment. Cbz = O=C(OCc1ccccc1)*; CH2F = FC*

Experiments:
GRIP-1 in LNCaP cells = assay: Immunoblot of AR co-activators; assay type: cell-based, human; conditions: DHT treatment
Procedure: (§1) The whole-cell lysates were prepared as described previously in immunoprecipitation (IP) buffer containing 50 mM Tris-HCl (pH 8.0), 150 mM NaCl, 5 mM EDTA, and 1% Triton X-100. Protein aliquots of 500 μg were then incubated overnight at 4°C using 2 μg of antibody directed against AR. The Protein A-Cl Agarose beads were then added and further incubated for 6 h at 4°C. The immunoprecipitates were washed four times with the IP buffer and the immunocomplexes were recovered by boiling in SDS sample buffer. Finally the western blot was carried out using anti-AR, anti-SRC-1 and anti-GRIP-1 antibodies (Santa Cruz, CA, USA). For western blot analysis, the cell lysates were prepared after harvesting them in lysis buffer. About 40 μg of total protein was electrophoresed by 12% SDS-PAGE, and the western blotting was carried out using standard protocol. In brief, the analyzed proteins were transferred to nylon membranes. The blots were then blocked with TBST buffer (20 mM Tris-Cl, pH 7.5, 150 mM sodium chloride, 0.05% Tween-20) containing 5% skim milk powder. They were then washed with TBST buffer and incubated overnight at 4°C with the same buffer containing appropriate amounts of primary antibodies: caspase-3, Bax, Bcl-2, Akt, p-Akt, ERK, p-ERK, AR, SRC-1, GRIP-1 (1∶500) and β-actin (1∶1000). The blots were then washed and incubated with anti-rabbit secondary antibody (1∶20,000) conjugated with horseradish peroxidase (HRP). Color development was performed in the dark by using an ECL kit (Amersham, GE Healthcare, Buckinghamshire, UK). The developed blots were subjected to densitometric analysis by ImageJ 1.43 software (NIH, USA) using β-actin as internal control.

SRC-1 in LNCaP cells = assay: Immunoblot of AR co-activators; assay type: cell-based, human; conditions: DHT treatment
Procedure: as §1

[1] = test system: p53 protein in LNCaP cells; assay: Immunoblot of p53 with p53 inhibitor; assay type: cell-based, human; conditions: 20 μM PFT-α, 20 and 40 μM conjugate, 24 h
Procedure: The whole-cell lysates were prepared as described previously in immunoprecipitation (IP) buffer containing 50 mM Tris-HCl (pH 8.0), 150 mM NaCl, 5 mM EDTA, and 1% Triton X-100. Protein aliquots of 500 μg were then incubated overnight at 4°C using 2 μg of antibody directed against AR. The Protein A-Cl Agarose beads were then added and further incubated for 6 h at 4°C. The immunoprecipitates were washed four times with the IP buffer and the immunocomplexes were recovered by boiling in SDS sample buffer. Finally the western blot was carried out using anti-AR, anti-SRC-1 and anti-GRIP-1 antibodies (Santa Cruz, CA, USA). For western blot analysis, the cell lysates were prepared after harvesting them in lysis buffer. About 40 μg of total protein was electrophoresed by 12% SDS-PAGE, and the western blotting was carried out using standard protocol. In brief, the analyzed proteins were transferred to nylon membranes. […]
Since there was no significant difference in the number of apoptotic cells between conjugate treated LNCaP (wild type p53) and PC-3 (p53 null) cells (p<0.05), it was intriguing to check if p53 has any role in conjugate induced apoptosis of PCa cells. […] Next we determined the effect of p53-inhibition on conjugate induced cell death by using MTT assay.

CHO cells = assay: MTT cytotoxicity assay; assay type: cell-based; conditions: Cricetulus griseus, CHO noncancer cells, 24 h exposure, read-out: IC50 value (50% growth inhibition)
Procedure: (§2) MTT assay was carried out as described previously. In brief, 5×10^3 cells in 200 μl of medium were seeded in 96-well plates (Griener, Germany). After 24 h, the cells were treated with various concentrations (0.1, 1, 10, 100 and 1000 μM) of RESV, PTER and conjugate. The control cells were treated with 0.1% DMSO (vehicle control). The cultured cells were assayed after 24 h by adding 20 μl of 5 mg/ml MTT followed by incubating at 37°C for 4 h. The MTT containing media was then aspirated and 200 μl DMSO (Himedia, Mumbai, India) was added to dissolve the formazone crystals. The optical density (OD) was measured at 570 nm using ELISA plate reader (Fluostar optima, BMG Labtech, Germany). The percentage inhibition was calculated as: [drawing 1]
(§3) The dose response curve and IC50 values were obtained by nonlinear regression analysis [non-linear regression (sigmoidal dose response with variable slope)] using Graph Pad Prism, version 5.02 software (Graph Pad Software Inc., CA, USA).

COS-1 cells = assay: MTT cytotoxicity assay; assay type: cell-based; conditions: Chlorocebus aethiops, COS-1 noncancer cells, 24 h exposure, read-out: IC50 value (50% growth inhibition)
Procedure: as §2, §3

LNCaP cells [2] = assay: MTT cytotoxicity assay; assay type: cell-based; conditions: Homo sapiens, 24 h, 24 h exposure, mean ± SEM, read-out: IC50 value (50% growth inhibition)
Procedure: as §2, §3

PC-3 cells [3] = assay: MTT cytotoxicity assay; assay type: cell-based; conditions: Homo sapiens; PC-3, MTT, 24 h exposure, mean ± SEM; read-out: IC50 value (50% growth inhibition)
Procedure: as §2, §3

[4] = test system: caspase-3 activity in LNCaP cells; assay: Caspase colorimetric protease assay; assay type: cell-based, human; conditions: 24 h
Procedure: (§4) Caspase activity was determined using ApoTarget caspase colorimetric protease assay sampler kit (KHZ1001; Invitrogen) according to the manufacturer’s instructions. Briefly, both the PCa cells were treated with increasing doses of conjugate and RESV for 24 h. The cells were then collected, washed in PBS, and lysed in 50 μl lysis buffer on ice for 10 min. After centrifugation, the supernatant containing 150 μg proteins were incubated with 200 μM of caspase-3 (Ac-DEVD-pNA), caspase-8 (Ac-IETD-pNA) and caspase-9 (Ac-LEHD-pNA) substrates respectively in reaction buffer at 37°C for 1 h in 96 well flat bottom plate. Levels of released pNA were then measured at 405 nm wavelength with ELISA plate reader (Fluostar optima, BMG Labtech, Germany). The fold-increase in caspase-3, -8, and -9 activities were determined by direct comparison to the level of un-induced control. For the caspase inhibitor assay, cells were pretreated with a synthetic pan-caspase inhibitor (Z-VAD-FMK), caspase-8 inhibitor (Z-IETD-FMK) and caspase-9 inhibitor (Z-LEHD-FMK) for 1 h before the addition of conjugate and the cell death were analyzed by MTT assay as discussed earlier.

[5] = test system: caspase-3 activity in PC-3 cells; assay: Caspase colorimetric protease assay; assay type: cell-based, human; conditions: PC-3, 10, 20 and 40 μM, 24 h
Procedure: as §4

[6] = test system: caspase-8 activity in PC-3 cells; assay: Caspase colorimetric protease assay; assay type: cell-based, human; conditions: PC-3, 24 h, high dose
Procedure: as §4

[7] = test system: caspase-9 activity in LNCaP cells; assay: Caspase colorimetric protease assay; assay type: cell-based, human; conditions: 24 h
Procedure: as §4

[8] = test system: caspase-9 activity in PC-3 cells; assay: Caspase colorimetric protease assay; assay type: cell-based, human; conditions: PC-3, 10, 20 and 40 μM, 24 h
Procedure: as §4

[9] = test system: caspase-3 expression in LNCaP cells; assay: Immunoblot analysis of apoptotic markers; assay type: cell-based, human; conditions: highest dose (40 μM), immunoblot densitometry
Procedure: as §1

[10] = test system: caspase-3 expression in PC-3 cells; assay: Immunoblot analysis of apoptotic markers; assay type: cell-based, human; conditions: PC-3, highest dose (40 μM), immunoblot densitometry
Procedure: as §1

p-Akt in LNCaP cells = assay: Immunoblot of Akt phosphorylation; assay type: cell-based, human; conditions: below 20 μM, 24 h
Procedure: as §1
(§5) The siRNAs against human Akt and ERK and control siRNA were purchased commercially from Santa Cruz Biotechnology (USA). The LNCaP and PC-3 PCa cells were transfected with siRNAs (at a final concentration of 100 nM) using polyfect transfection reagent (Qiagen, CA, USA) according to manufacturer’s instructions. After 24 h of transfection, the cells were washed properly and replaced with fresh medium. The cells were then treated with 20 μM conjugate for 24 h, and finally protein lysates were prepared on completion of treatment. The levels of p-Akt, p-ERK and cleaved caspase-3 expressions were detected by Western blot analysis.

p-Akt in PC-3 cells = assay: Immunoblot of Akt phosphorylation; assay type: cell-based, human; conditions: 24 h
Procedure: as §1, §5

p-ERK in PC-3 cells = assay: Immunoblot of ERK phosphorylation; assay type: cell-based, human; conditions: 24 h
Procedure: as §1, §5

[11] = test system: AR protein in LNCaP cells; assay: Immunoblot of AR protein; assay type: cell-based, human
Procedure: as §1

AR in LNCaP cells = assay: Immunofluorescence staining of endogenous AR; assay type: cell-based, human; conditions: varying doses of conjugate, 20 μM RESV, DHT
Procedure: The cells were then incubated with AR rabbit polyclonal antibody diluted 1∶200 in blocking buffer for 1 h at RT. Finally, the cells were washed with PBS and incubated with FITC-labelled anti-rabbit secondary antibody diluted 1∶1000 in blocking buffer for 30 min at room temperature. The cells were then observed under a fluorescence microscope (Zeiss, Axiovert 25, Germany).

LNCaP cells [12] = assay: Caspase inhibitor assay (conjugate-induced cell death, MTT); assay type: cell-based, human; conditions: 20 μM caspase inhibitor 1 h before 20 μM conjugate, MTT after 24 h
Procedure: as §4
(§6) Figure 2 The conjugate induces G2/M phase arrest and caspase dependent cell death in prostate cancer cells. Cell cycle distribution of (A) PC-3 and (B) LNCaP cells upon treatment with varying doses of conjugate. Results are presented as mean ± SEM of three independent experiments. *represents statistically significant difference with respect to vehicle treated PC-3 and LNCaP cells respectively corresponding to each stage of cell cycle at p<0.05. (C) The effects of varying doses of conjugate (left panel) and resveratrol (right panel) on caspase-8, -9 and -3 activities in PC-3 and (D) LNCaP cells. Results are the mean ± SEM of three independent experiments. *represents statistically significant difference with respect to control cells for respective caspases tested at p<0.05. (E) The effect of caspase inhibitors on conjugate-induced cell death in PC-3 and (F) LNCaP cells. The cells were pre-treated with 20 μM of respective caspase inhibitors: Z-LEHDFMK (caspase-9 inhibitor); Z-IETDFMK (caspase-8 inhibitor); and Z-VAD-FMK (general caspase inhibitor) for 1 h before the addition of 20 μM conjugate. Cell death was measured 24 h after conjugate treatment using MTT assay. Data are the mean ± SEM of three independent experiments. *and # represents statistically significant difference with respect to control (vehicle) and conjugate treated cells respectively for each cell lines at p<0.05. ns, non-significant.

PC-3 cells [13] = assay: as above; assay type: cell-based, human; conditions: PC-3, 20 μM caspase inhibitor 1 h before 20 μM conjugate, MTT after 24 h
Procedure: as §4, §6

## C[C@]12CCC(=O)C[C@@H]1CC[C@@H]1[C@@H]2CC[C@]2(C)[C@@H](O)CC[C@@H]12 [DHT, dihydrotestosterone, reference compound]
GRIP-1 in LNCaP cells
  change in expression of GRIP-1: no significant change
SRC-1 in LNCaP cells
  increase in expression of SRC-1: 1.2 fold

## Cc1ccc(C(=O)Cn2c3c(sc2=N)CCCC3)cc1 [PFT-α, pifithrin-α, reference compound]
[1]
  expression of p53 protein: significantly down regulated

## COc1cc(/C=C/c2ccc(O)cc2)cc(OC)c1 [Pterostilbene]
CHO cells
  IC50: > 100 µM
COS-1 cells
  IC50: > 100 µM
LNCaP cells [2]
  IC50: ~66.4 µM
PC-3 cells [3]
  IC50: 75 ± 2.55 µM

## Oc1ccc(/C=C/c2cc(O)cc(O)c2)cc1 [Resveratrol, reference compound]
CHO cells
  IC50: > 100 µM
COS-1 cells
  IC50: > 100 µM
LNCaP cells [2]
  IC50: ~82.2 µM
PC-3 cells [3]
  IC50: 95 ± 1.13 µM
[4]
  caspase-3 activity: significant increase
[5]
  caspase-3 enzyme activity: dose-dependent augmentation
[6]
  caspase-8 activity: marginal increase
[7]
  caspase-9 activity: significant increase
[8]
  caspase-9 enzyme activity: dose-dependent augmentation
[9]
  enhancement of caspase-3 expression: 4.5 folds
[10]
  enhancement of caspase-3 expression: 3.5 folds
p-Akt in LNCaP cells
  effect on level of p-Akt: negligible effects
p-Akt in PC-3 cells; PC-3, 20 μM
  decrease in level of p-Akt: about 1.2 folds
p-Akt in PC-3 cells; PC-3, 40 μM
  decrease in level of p-Akt: ~1.6 folds
p-ERK in PC-3 cells; PC-3, 20 μM
  reduction in level of p-ERK: 1.3 folds
p-ERK in PC-3 cells; PC-3, 40 μM
  reduction in level of p-ERK: 1.8 folds
[11]; 10 and 20 μM, absence of DHT
  inhibition of AR protein levels: did not show any significant inhibition
[11]; till 20 μM, 10 nM DHT
  inhibition of DHT induced AR protein levels: did not show any significant inhibition
AR in LNCaP cells
  AR immunofluorescence intensity: marginal decrease

## COC(=O)CC[C@H](NC(=O)[C@H](CC(C)C)NC(=O)OCc1ccccc1)C(=O)N[C@@H](Cc1c[nH]cn1)C(=O)N[C@@H](CC(=O)OC)C(=O)CF [Z-LEHD-FMK] (Cbz-LE(OMe)HD(OMe)-CH2F)
LNCaP cells [12]
  inhibition of conjugate induced cell death/apoptosis: almost completely blocked

## Cbz-Val-Ala-Asp-CH2F
LNCaP cells [12]
  inhibition of conjugate induced cell death/apoptosis: significant inhibition of cell death
PC-3 cells [13]
  inhibition of conjugate induced cell death: significant inhibition of cell death

## Z-IETD-FMK: caspase-8 specific inhibitor
LNCaP cells [12]
  inhibition of conjugate induced cell death/apoptosis: only partially inhibited
PC-3 cells [13]
  inhibition of conjugate induced cell death: completely ineffective
